Laboratory results as given in article PMC12797170, “Potent Competitive Inhibitors of Ecto-5′-nucleotidase (CD73) based on 6‑(Het)aryl-7-deazapurine Ribonucleoside 5′‑O‑Bisphosphonates” (ACS Pharmacology & Translational Science, 2025).
pIC50: −log10 of the molar value. Converted amounts (≈) assume the structure as drawn.

Experiments:
[1] = Kinetic solubility in PBS; assay type: physicochemical; settings: phosphate-buffered saline, pH 7.4, aqueous buffer, kinetic from dmso stock
Protocol: Test compounds were prepared as 10 mM stock solutions in DMSO and diluted in phosphate-buffered saline (PBS, pH 7.4) to a 100 μM solution, which was then aliquoted in duplicate. The duplicate samples were incubated in Multiscreen PCF Filter Plates (Merck Millipore) with sealed bottom at room temperature on a shaker for 2 h to allow equilibration. Following incubation, the samples were centrifuged into nonsterile, flat-bottom 96-well plates at 2,200 RCF for 12 min. Supernatants were then diluted 1:99 in a solution of 50% acetonitrile containing 0.1% DMSO. The diluted samples were transferred to 384-well Echo plates, which contained prespotted calibration standards prepared by Echo transfer of 10 mM and 1 mM DMSO stock solutions, resulting in calibration points ranging from 0.05 to 4 μM. Samples and standards were subsequently analyzed by Echo-MS.

[2] = Plasma protein binding, mouse plasma; assay type: in vitro ADME; settings: mouse, plasma, mouse plasma protein binding; read-out: PPB (m) (converted)
Protocol: (§1) Plasma protein binding of the investigated compounds was determined using equilibrium dialysis in single-use Rapid Equilibrium Dialysis devices with an 8 kDa molecular weight cutoff (Thermo Fisher Scientific), following the manufacturer’s protocol. In brief, 50 μL of undiluted human plasma (Biowest), spiked with the test compound at a final concentration of 100 μM, was added to the sample chamber, while 300 μL of phosphate-buffered saline (PBS) was placed in the buffer chamber. Devices were incubated for 4 h at 37 °C with gentle shaking.
(§2) After dialysis, 7.5 μL aliquots from both the plasma and buffer chambers were transferred directly into wells of a 384-well plate. To equalize the matrices for downstream processing, 7.5 μL of PBS was added to each plasma aliquot, and 7.5 μL of plasma was added to each buffer aliquot. Proteins were precipitated by adding four volumes of ice-cold methanol to each well, followed by thorough mixing and incubation at – 20 °C for 30 min. Plates were then stored overnight at 8 °C. Prior to analysis, the plate was centrifuged at 2,000 × g for 20 min at 8 °C. […] The fraction of unbound compound was calculated using the following equations: %Free=c(bufferchamber)/c(plasmachamber)*100% %Bound=100%−%Free

[3] = in vitro; settings: mouse, plasma
[4] = Microsomal stability assay, human liver microsomes; assay type: in vitro ADME; settings: for Mics (hu) comp remaining 60 min: 10 μM; for microsomal CLint at 10 µM: pooled liver microsomes, pH 7.4, read-out: Mics (hu) CLint
[5] = system: nonmalignant human dermal fibroblasts (NHDF); experiment: In vitro cytotoxic activity; assay type: cell-based
Protocol: (§3) All the compounds were also tested for their in vitro cytotoxic activity on a small panel of four cancer cell lines (CCRF-CEM, HepG2, HeLa S3, HL-60) and nonmalignant human dermal fibroblasts (NHDF).

[6] = system: HeLa S3; experiment: In vitro cytotoxic activity; assay type: cell-based; settings: Homo sapiens
Protocol: as §3

[7] = system: CCRF-CEM; experiment: In vitro cytotoxic activity; assay type: cell-based; settings: Homo sapiens
Protocol: as §3

[8] = system: HL-60; experiment: In vitro cytotoxic activity; assay type: cell-based; settings: Homo sapiens
Protocol: as §3

[9] = system: HepG2; experiment: In vitro cytotoxic activity; assay type: cell-based; settings: Homo sapiens
Protocol: as §3

[10] = in vitro; settings: human, plasma
[11] = Microsomal stability assay, mouse liver microsomes; assay type: in vitro ADME; settings: for Mics (m) comp remaining 60 min: 10 μM; for microsomal CLint at 10 µM: pooled liver microsomes, pH 7.4, read-out: Mics (m) CLint
[12] = molecular target: T1, recombinant human CD73 (hCD73) (Homo sapiens, UniProt P21589); experiment: CD73 activity assay on recombinant human CD73; assay type: biochemical; settings: ΔGexp = RT ln Ki
T1 sequence (P21589 27-574): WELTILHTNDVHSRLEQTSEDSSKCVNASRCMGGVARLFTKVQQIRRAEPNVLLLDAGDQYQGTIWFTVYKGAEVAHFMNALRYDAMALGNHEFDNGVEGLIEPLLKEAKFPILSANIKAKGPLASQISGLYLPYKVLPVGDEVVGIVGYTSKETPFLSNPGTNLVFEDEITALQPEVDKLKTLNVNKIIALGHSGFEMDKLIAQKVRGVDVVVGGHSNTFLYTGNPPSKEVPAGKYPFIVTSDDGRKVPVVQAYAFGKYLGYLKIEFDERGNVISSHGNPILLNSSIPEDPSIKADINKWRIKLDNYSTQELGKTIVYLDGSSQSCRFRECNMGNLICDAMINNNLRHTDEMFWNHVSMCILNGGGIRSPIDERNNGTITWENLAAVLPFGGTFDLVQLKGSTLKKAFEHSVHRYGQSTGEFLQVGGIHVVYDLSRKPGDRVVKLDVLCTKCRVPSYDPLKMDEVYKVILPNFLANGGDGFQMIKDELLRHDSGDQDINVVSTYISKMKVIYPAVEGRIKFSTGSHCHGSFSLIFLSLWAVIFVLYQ

[13] = Plasma protein binding, equilibrium dialysis, human plasma; assay type: in vitro ADME; settings: undiluted plasma, human plasma protein binding, read-out: PPB (hu) (converted)
Protocol: as §1, §2

Structure (SMILES)	solubility at 2 h [1] [µM]	fraction unbound at 4 h, 100 µM [2]	half-life at 10 µM [3] [h]	Mics (hu) comp remaining 60 min [4] [%]	microsomal CLint at 10 µM [4] [µL/min/mg]	half-life at 10 µM [10] [h]	Mics (m) comp remaining 60 min [11] [%]	microsomal CLint at 10 µM [11] [µL/min/mg]	dG_exp, experimental binding free energy [12]	fraction unbound at 4 h, 100 µM [13]	pIC50 [5]	pIC50 [6]	pIC50 [7]	pIC50 [8]	pIC50 [9]
O=P(O)(O)CP(=O)(O)OC[C@H]1O[C@@H](n2ccc3c(-c4cnc5ccccc5c4)ncnc32)[C@H](O)[C@@H]1O [4A.20]	> 100	0.536	> 2	88	2	> 2	110	< 1	–12.8 kcal/mol	0.054	< 5.00	< 5.00	< 5.00	< 5.00	< 5.00
O=P(O)(O)CP(=O)(O)OC[C@H]1O[C@@H](n2cnc3c(-c4cccc5c4CCCC5)ncnc32)[C@H](O)[C@@H]1O [31A.12]	80 (≈ 43.2 µg/mL)	0.509	> 2	102	< 1	> 2	88	6	–11.8 kcal/mol	0.084	< 5.00	< 5.00	< 5.00	< 5.00	< 5.00
O=P(O)(O)CP(=O)(O)OC[C@H]1O[C@@H](n2ccc3c(-c4ccc5cc(OCc6ccccc6)ccc5c4)nc(Cl)nc32)[C@H](O)[C@@H]1O [7B.31]	> 100	≤ 0.01	> 2	147	< 2	> 2	134	< 2	–14.1 kcal/mol	≤ 0.01	< 5.00	< 5.00	< 5.00	< 5.00	< 5.00
O=P(O)(O)CP(=O)(O)OC[C@H]1O[C@@H](n2ccc3c(-c4ccc5ccccc5c4)nc(F)nc32)[C@H](O)[C@@H]1O [14D.7]	85 (≈ 47 µg/mL)	0.183	> 2	112	< 1	> 2	105	< 1	–14.2 kcal/mol	0.024	< 5.00	< 5.00	< 5.00	< 5.00	< 5.00

Further lines, with some results ahead:

solubility at 2 h [1] [µM]	fraction unbound at 4 h, 100 µM [2]	half-life at 10 µM [3] [h]	Mics (hu) comp remaining 60 min [4] [%]	microsomal CLint at 10 µM [4] [µL/min/mg]	half-life at 10 µM [10] [h]	Mics (m) comp remaining 60 min [11] [%]	microsomal CLint at 10 µM [11] [µL/min/mg]	dG_exp, experimental binding free energy [12]	fraction unbound at 4 h, 100 µM [13]	Structure (SMILES)	pIC50 [5]	pIC50 [6]	pIC50 [7]	pIC50 [8]	pIC50 [9]
81 (≈ 43.9 µg/mL)	0.594	> 2	96	1	> 2	94	1	–12.8 kcal/mol	0.108	O=P(O)(O)CP(=O)(O)OC[C@H]1O[C@@H](n2ccc3c(-c4cccc5c4OCCC5)ncnc32)[C@H](O)[C@@H]1O [4A.13]	< 5.00	< 5.00	< 5.00	< 5.00	< 5.00
76 (≈ 39.9 µg/mL)	0.542	> 2	118	< 1	> 2	102	< 1	–13.4 kcal/mol	0.036	O=P(O)(O)CP(=O)(O)OC[C@H]1O[C@@H](n2ccc3c(-c4cccc5ccoc45)ncnc32)[C@H](O)[C@@H]1O [4A.15]	5.24	< 5.00	< 5.00	5.07	5.06
